Holding throughout (format): in vivo
The test system of test [1] is Beet Armyworm (Spodoptera exigua, LAPHEG). Briefly: Bioassay on Beet Armyworm (BAW), 128-well diet tray assay. An outline of the steps: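 Artificial diet surface-treated with 50 μg/cm^2 test molecule in 90:10 acetone-water, dried, then infested with one to five second instar larvae per well. Held covered and vented at 25° C., 14:10 light-dark for five to seven days; percent mortality recorded per well and averaged over eight wells.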

For test [2], the system named is Cabbage Looper (Trichoplusia ni, TRIPNI). Briefly: Bioassay on Cabbage Looper (CL), 128-well diet tray assay. Conditions: Trichoplusia ni. The gist of the method:
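Second-instar larvae, one to five per well, placed on artificial diet treated with 50 μg/cm^2 test molecule in 90:10 acetone-water, dried before infestation. Held 5–7 days at 25° C, 14:10 light-dark; percent mortality averaged over eight wells.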

Test [3] deals with Yellow Fever Mosquito (Aedes aegypti, AEDSAE). In words: Bioassay on Yellow Fever Mosquito (YFM), 96-well plate larval assay. The settings on record: for YFM (Biological Results, rating): Species YFM (Yellow Fever Mosquito); for YFM rating: Yellow Fever Mosquito, 96-well plate larval assay. The gist of the method:
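Each well was scored for mortality after 3 days at room temperature under a non-evaporative lid. Test molecules came from DMSO masters (4000 ppm stock) diluted with water/acetone 90:10 and dispensed into six replicate plates, which were then infested with roughly 1-day-old larvae in liver-powder water.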

Where [4] appears, read: Species BAW (Beet Armyworm), read-out: BAW (Biological Results, rating).
[5] abbreviates: Species CL (Cabbage Looper), read-out: CL (Biological Results, rating).
Where [6] appears, read: Beet Armyworm, 128-well diet tray assay, read-out: BAW rating.
Setting [7] is: Cabbage Looper, 128-well diet tray assay, read-out: CL rating.

Like-named read-outs stand apart in the source and are kept apart here.

For the compound `Cc1cc(N)ccc1NC(=O)c1cc(NC(=O)[C@H]2[C@H](c3ccc(Br)c(Cl)c3)C2(Cl)Cl)ccc1Cl` (relative stereo) [F324, N-(4-Amino-2-methylphenyl)-5-(trans-3-(4-bromo-3-chlorophenyl)-2,2-dichlorocyclopropane-1-carboxamido)-2-chlorobenzamide], the pest or weed control at 50 µg/cm2 in test [1] (setting [4]) and in test [2] (setting [5]) was 50 to 100% throughout. In test [3], the “YFM (Biological Results, rating)” value is recorded as “A (80-100)”.

As to `Cn1ccc2cc(NC(=O)c3cc(NC(=O)[C@H]4[C@H](c5cc(Cl)cc(Cl)c5)C4(Cl)Cl)ccc3Cl)cnc21` (relative stereo) [F464, 2-Chloro-5-(trans)-(2,2-dichloro-3-(3,5-dichlorophenyl)cyclopropane-1-carboxamido)-N-(1-methyl-1H-pyrrolo[2,3-b]pyridin-5-yl)benzamide], the pest or weed control at 50 µg/cm2 in test [1] (setting [6]) and in test [2] (setting [7]) was 50 to 100% throughout. In addition, in test [3], the YFM rating result is reported as “A (80-100)”.

As to `O=C(Nc1ncc(F)cc1F)c1cc(NC(=O)[C@H]2[C@H](c3ccc(C(F)F)c(Cl)c3)C2(Cl)Cl)ccc1Cl` (relative stereo) [F588, 2-Chloro-5-(trans-2,2-dichloro-3-(3-chloro-4-(difluoromethyl)phenyl)cyclopropane-1-carboxamido)-N-(3,5-difluoropyridin-2-yl)benzamide], the pest or weed control at 50 µg/cm2 in test [1] (setting [6]) and in test [2] (setting [7]) was 50 to 100% throughout. Besides, the YFM rating result in test [3] is “A (80-100)”.

Consider `C=CC(=O)Nc1ccc(NC(=O)c2cc(NC(=O)[C@H]3[C@H](c4cc(Cl)cc(Cl)c4)C3(Cl)Cl)ccc2Cl)cc1` (relative stereo) [PF26, trans-N-(4-Acrylamidophenyl)-2-chloro-5-(2,2-dichloro-3-(3,5-dichlorophenyl)cyclopropane-1-carboxamido)benzamide], for which the pest or weed control at 50 µg/cm2 in test [1] (setting [6]) and in test [2] (setting [7]) was 50 to 100% each time. In test [3], the YFM rating entry is listed as “A (80-100)”.

In the case of `COc1cc(NC(=O)c2cc(NC(=O)[C@H]3[C@H](c4ccc(F)c(Cl)c4)C3(Cl)Cl)ccc2Cl)ccn1` (relative stereo) [F545, 2-Chloro-5-(trans-2,2-dichloro-3-(3-chloro-4-fluorophenyl)cyclopropane-1-carboxamido)-N-(2-methoxypyridin-4-yl)benzamide], the pest or weed control at 50 µg/cm2 in test [1] (setting [6]) and in test [2] (setting [7]) was 50 to 100% each time. Moreover, the YFM rating result in test [3] is on record as “A (80-100)”.

For the compound `O=C(Nc1ncc(F)cc1F)c1cc(NC(=O)[C@H]2[C@H](c3cc(Cl)cc(Cl)c3)C2(Cl)Cl)ccc1Cl` (relative stereo) [F241, trans-2-Chloro-5-(2,2-dichloro-3-(3,5-dichlorophenyl)cyclopropane-1-carboxamido)-N-(3,5-difluoropyridin-2-yl)benzamide], the pest or weed control at 50 µg/cm2 in test [1] (setting [4]) and in test [2] (setting [5]) was 50 to 100% in each case. Besides, the “YFM (Biological Results, rating)” value in test [3] is given as “A (80-100)”.

For the compound `Nc1cc(F)c(NC(=O)c2cc(NC(=O)[C@H]3[C@H](c4cc(Cl)c(Cl)c(Cl)c4)C3(Cl)Cl)ccc2Cl)cc1F` [F570, trans-N-(4-Amino-2,5-difluorophenyl)-2-chloro-5-((1R,3R)-2,2-dichloro-3-(3,4,5-trichlorophenyl)cyclopropane-1-carboxamido)benzamide], the pest or weed control at 50 µg/cm2 in test [1] (setting [6]) and in test [2] (setting [7]) was 50 to 100% each time. Besides, the YFM rating result in test [3] is “A (80-100)”.

For the compound `N#Cc1cccc(F)c1NC(=O)c1cc(NC(=O)[C@H]2[C@H](c3cc(Cl)cc(Cl)c3)C2(Cl)Cl)ccc1Cl` (relative stereo) [F299, 2-Chloro-N-(2-cyano-6-fluorophenyl)-5-(trans-2,2-dichloro-3-(3,5-dichlorophenyl)cyclopropane-1-carboxamido)benzamide], the pest or weed control at 50 µg/cm2 in test [1] (setting [4]) and in test [2] (setting [5]) was 50 to 100% in each case. Moreover, the “YFM (Biological Results, rating)” value in test [3] is on record as “A (80-100)”.

As to `C#Cc1ccc(NC(=O)c2cc(NC(=O)[C@H]3[C@H](c4cc(Cl)cc(Cl)c4)C3(Cl)Cl)ccc2Cl)cc1` (relative stereo) [PF15, trans-2-Chloro-5-(2,2-dichloro-3-(3,5-dichlorophenyl)cyclopropane-1-carboxamido)-N-(4-ethynylphenyl)benzamide], the pest or weed control at 50 µg/cm2 in test [1] (setting [6]) and in test [2] (setting [7]) was 50 to 100% in each case. The YFM rating result in test [3] is on record as “B (More than 0-Less than 80)”.

As for `C=C(F)c1ccc([C@H]2[C@H](C(=O)Nc3ccc(Cl)c(C(=O)Nc4ccc(F)cc4)c3)C2(Cl)Cl)cc1Cl` (relative stereo) [F382, 2-Chloro-5-(trans-2,2-dichloro-3-(3-chloro-4-(1-fluorovinyl)phenyl)cyclopropane-1-carboxamido)-N-(4-fluorophenyl)benzamide], the pest or weed control at 50 µg/cm2 in test [1] (setting [6]) and in test [2] (setting [7]) was 50 to 100% throughout. Further, the YFM rating entry in test [3] is on record as “A (80-100)”.

`C=C(F)c1ccc(NC(=O)c2cc(NC(=O)[C@H]3[C@H](c4cc(Cl)cc(Cl)c4)C3(Cl)Cl)ccc2Cl)nc1F` (relative stereo) [F398, 2-chloro-5-(trans-2,2-dichloro-3-(3,5-dichlorophenyl)cyclopropane-1-carboxamido)-N-(6-fluoro-5-(1-fluorovinyl)pyridin-2-yl)benzamide]: the pest or weed control at 50 µg/cm2 in test [1] (setting [6]) and in test [2] (setting [7]) was 50 to 100% in each case. In test [3], the YFM rating result is “A (80-100)”.

For the compound `COc1c(F)cc(C2C(C(=O)Nc3ccc(Cl)c(C(=O)Nc4ccc(F)cc4F)c3)C2(Cl)Cl)cc1F` (stereo not drawn) [F537, 2-Chloro-5-trans-(2,2-dichloro-3-(3,5-difluoro-4-methoxyphenyl)cyclopropane-1-carboxamido)-N-(2,4-difluorophenyl)benzamide], the pest or weed control at 50 µg/cm2 in test [1] (setting [6]) and in test [2] (setting [7]) was 50 to 100% each time. In addition, the YFM rating entry in test [3] is given as “A (80-100)”.

In the case of `O=C(Nc1ccc(F)cc1F)c1cc(NC(=O)[C@H]2[C@H](c3ccc(Cl)c(Br)c3)C2(Cl)Cl)ccc1Cl` (relative stereo) [F331, 5-(trans-3-(3-Bromo-4-chlorophenyl)-2,2-dichlorocyclopropane-1-carboxamido)-2-chloro-N-(2,4-difluorophenyl)benzamide], the pest or weed control at 50 µg/cm2 in test [1] (setting [4]) and in test [2] (setting [5]) was 50 to 100% each time. Also, the “YFM (Biological Results, rating)” value in test [3] is on record as “A (80-100)”.

Turning to `CNc1ccc(NC(=O)c2cc(NC(=O)[C@H]3[C@H](c4cc(Cl)cc(Cl)c4)C3(Cl)Cl)ccc2Cl)cc1C` (relative stereo) [F206, trans-2-Chloro-5-(2,2-dichloro-3-(3,5-dichlorophenyl)cyclopropane-1-carboxamido)-N-(3-methyl-4-(methylamino)phenyl)benzamide], the pest or weed control at 50 µg/cm2 in test [1] (setting [4]) and in test [2] (setting [5]) was 50 to 100% throughout. Besides, the “YFM (Biological Results, rating)” value in test [3] is on record as “A (80-100)”.

With `O=C(Nc1ccc(F)cc1F)c1cc(NC(=O)[C@H]2[C@H](c3cccc(C(F)F)c3)C2(Cl)Cl)ccc1Cl` (relative stereo) [F564, 2-Chloro-5-(trans-2,2-dichloro-3-(3-(difluoromethyl)phenyl)cyclopropane-1-carboxamido)-N-(2,4-difluorophenyl)benzamide], the pest or weed control at 50 µg/cm2 in test [1] (setting [6]) and in test [2] (setting [7]) was 50 to 100% each time. Moreover, the YFM rating result in test [3] is given as “A (80-100)”.

On to `C#Cc1cccc(NC(=O)c2cc(NC(=O)C3C(c4cc(Cl)cc(Cl)c4)C3(Cl)Cl)ccc2Cl)c1` (stereo not drawn) [PF124, 2-Chloro-5-(trans)-2,2-dichloro-3-(3,5-dichlorophenyl)cyclopropane-1-carboxamido)-N-(3-ethynylphenyl)benzamide], for which the pest or weed control at 50 µg/cm2 in test [1] (setting [6]) and in test [2] (setting [7]) was 50 to 100% throughout. In addition, the YFM rating result in test [3] is reported as “A (80-100)”.

With `O=C(Nc1ccc(F)cc1)c1cc(NC(=O)[C@H]2[C@H](c3ccc(Cl)c(Br)c3)C2(Cl)Cl)ccc1Cl` (relative stereo) [F330, 5-(trans-3-(3-Bromo-4-chlorophenyl)-2,2-dichlorocyclopropane-1-carboxamido)-2-chloro-N-(4-fluorophenyl)benzamide], the pest or weed control at 50 µg/cm2 in test [1] (setting [4]) and in test [2] (setting [5]) was 50 to 100% throughout. The “YFM (Biological Results, rating)” value in test [3] was “A (80-100)”.

As to `N#Cc1cc(C(F)(F)F)ccc1NC(=O)c1cc(NC(=O)[C@H]2[C@H](c3cc(Cl)cc(Cl)c3)C2(Cl)Cl)ccc1Cl` (relative stereo) [F232, 2-Chloro-N-(2-cyano-4-(trifluoromethyl)phenyl)-5-(trans-2,2-dichloro-3-(3,5-dichlorophenyl)cyclopropane-1-carboxamido)benzamide], the pest or weed control at 50 µg/cm2 in test [1] (setting [4]) and in test [2] (setting [5]) was 50 to 100% throughout. Moreover, the “YFM (Biological Results, rating)” value in test [3] is “A (80-100)”.

As to `O=C(Nc1ccc(-n2ccnc2)cc1)c1cc(NC(=O)[C@H]2[C@H](c3cc(Cl)cc(Cl)c3)C2(Cl)Cl)ccc1Cl` (relative stereo) [PF56, trans-N-(4-(1H-Imidazol-1-yl)phenyl)-2-chloro-5-(2,2-dichloro-3-(3,5-dichlorophenyl)cyclopropane-1-carboxamido)benzamide], the pest or weed control at 50 µg/cm2 in test [1] (setting [6]) and in test [2] (setting [7]) was 50 to 100% in each case. In addition, the YFM rating entry in test [3] was “A (80-100)”.
